In ChEMBL document CHEMBL1201862, “PubChem BioAssay data set” (2004):
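Cells were grown in 96-well plates and exposed to each compound for 48 hours at five concentrations; endpoints were interpolated linearly between bracketing concentrations, or set to the highest concentration if not reached. Abbreviation: GI50, concentration required for 50% inhibition of growth.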 Calls of active or inactive are those of the source. No stated cut-off is given here; in the data, active = GI50 up to about 1.1 µM and inactive = higher.

Experiments:
Test in all cases: growth of human tumour cells (NCI), 48 h
NCI-H522 = test system: NCI-H522
A549 = test system: A549
EKVX = test system: EKVX
CCRF-CEM = test system: CCRF-CEM
M14 = test system: M14
HL-60 = test system: HL-60
SK-MEL-2 = test system: SK-MEL-2
SNB-75 = test system: SNB-75
HT-29 = test system: HT-29
MOLT-4 = test system: MOLT-4
Malme-3M = test system: Malme-3M
HOP-62 = test system: HOP-62
UACC-257 = test system: UACC-257
IGROV-1 = test system: IGROV-1
RXF 393 = test system: RXF 393
A498 = test system: A498
NCI-H226 = test system: NCI-H226

Compound | GI50 (NCI-H522) | GI50 (A549) | GI50 (EKVX) | GI50 (CCRF-CEM) | GI50 (M14) | GI50 (HL-60) | GI50 (SK-MEL-2) | GI50 (SNB-75) | GI50 (HT-29) | GI50 (MOLT-4) | GI50 (Malme-3M) | GI50 (HOP-62) | GI50 (UACC-257) | GI50 (IGROV-1) | GI50 (RXF 393) | GI50 (A498) | GI50 (NCI-H226)
CC(C)(C)C(C#N)(C#N)c1ccc(C(C#N)(C#N)C(C)(C)C)nn1 | > 100 µM (inactive) | > 100 µM (inactive) | > 100 µM (inactive) | > 100 µM (inactive) | > 100 µM (inactive) | > 100 µM (inactive) | > 100 µM (inactive) | 23.6 µM (inactive) | > 100 µM (inactive) | > 100 µM (inactive) | > 100 µM (inactive) | > 100 µM (inactive) | > 100 µM (inactive) | > 100 µM (inactive) | 43.3 µM (inactive) |  | 
CCCCN(CCCC)CC(C(=O)Nc1ccc([N+](=O)[O-])cc1[N+](=O)[O-])/C(C)=N\NC(=O)c1ccncc1 (stereo not given) | > 100 µM (inactive) | > 100 µM (inactive) | > 100 µM (inactive) | > 100 µM (inactive) | > 100 µM (inactive) | > 100 µM (inactive) | > 100 µM (inactive) | 76.6 µM (inactive) |  | > 100 µM (inactive) | > 100 µM (inactive) | > 100 µM (inactive) | > 100 µM (inactive) | > 100 µM (inactive) | > 100 µM (inactive) | > 100 µM (inactive) | 
COc1cccc(/C(C=O)=C(\Cl)c2ccc(OC)c(OC)c2)c1 | 10.3 µM (inactive) | 19.5 µM (inactive) | 17.9 µM (inactive) | 7.74 µM (inactive) | 17.6 µM (inactive) | 3.97 µM (inactive) | 19.2 µM (inactive) | 5.04 µM (inactive) | 14.4 µM (inactive) | 13.2 µM (inactive) | 15.6 µM (inactive) | 12.3 µM (inactive) | 14.4 µM (inactive) | 21.1 µM (inactive) | 12.3 µM (inactive) |  | 14 µM (inactive)
Nn1c(CCCl)nc2c(Br)cc(Br)cc2c1=O | 15.9 µM (inactive) | 43.7 µM (inactive) | 29.8 µM (inactive) | 8.2 µM (inactive) | 30.3 µM (inactive) | 2.77 µM (inactive) | 33.1 µM (inactive) | 27.8 µM (inactive) | 32.7 µM (inactive) | 22.7 µM (inactive) | > 69.5 µM (inactive) | 26.8 µM (inactive) | 34.9 µM (inactive) | 21 µM (inactive) | 36.1 µM (inactive) | 35.7 µM (inactive) | 28.5 µM (inactive)
O=C(CCc1nnc(S)[nH]1)Nc1cc(Cl)c(Cl)cc1Cl | > 100 µM (inactive) | > 100 µM (inactive) |  | > 100 µM (inactive) | > 100 µM (inactive) | > 100 µM (inactive) | > 100 µM (inactive) | 25.4 µM (inactive) | > 100 µM (inactive) | > 100 µM (inactive) | > 100 µM (inactive) | > 100 µM (inactive) | > 100 µM (inactive) | > 100 µM (inactive) | > 100 µM (inactive) | > 100 µM (inactive) | > 100 µM (inactive)
COc1ccc(CNc2nc3c(NC(C)=O)cc(C(F)(F)F)cc3nc2-c2ccccc2)cc1OC | 2.69 µM (inactive) | 47.9 µM (inactive) | 35.6 µM (inactive) | > 100 µM (inactive) | 42.8 µM (inactive) | > 100 µM (inactive) | 57.7 µM (inactive) | 1.32 µM (inactive) | > 100 µM (inactive) | > 100 µM (inactive) | 95.3 µM (inactive) | 42.1 µM (inactive) | > 100 µM (inactive) | > 100 µM (inactive) |  | > 100 µM (inactive) | 
CN(C(=O)c1ccc(Cl)cc1)C(=S)N1CCN(c2ccccn2)CC1 | > 100 µM (inactive) | > 100 µM (inactive) |  | > 100 µM (inactive) | > 100 µM (inactive) | > 100 µM (inactive) | > 100 µM (inactive) | > 100 µM (inactive) | > 100 µM (inactive) | > 100 µM (inactive) | > 100 µM (inactive) | > 100 µM (inactive) | > 100 µM (inactive) | > 100 µM (inactive) | > 100 µM (inactive) |  | 37.2 µM (inactive)
CN(C)c1ccc(C(=C2C=CC(=[N+](C)C)C=C2)c2ccc(N(C)C)cc2)cc1 [GENTIAN VIOLET] | 0.298 µM (active) | 0.0395 µM (active) | 0.368 µM (active) | 0.102 µM (active) | 0.163 µM (active) | 0.04 µM (active) | 0.207 µM (active) | 0.182 µM (active) |  | 0.144 µM (active) | 0.245 µM (active) | 0.375 µM (active) | 0.176 µM (active) | 0.21 µM (active) | 0.201 µM (active) |  | 0.179 µM (active)
Cc1ccc(/C=C/C(=O)c2sc(C(N)=S)nc2C)cc1 | > 100 µM (inactive) | > 100 µM (inactive) | > 100 µM (inactive) | > 100 µM (inactive) |  | > 100 µM (inactive) | > 100 µM (inactive) | > 100 µM (inactive) | > 100 µM (inactive) | > 100 µM (inactive) | > 100 µM (inactive) | > 100 µM (inactive) | > 100 µM (inactive) | > 100 µM (inactive) | > 100 µM (inactive) | > 100 µM (inactive) | > 100 µM (inactive)
